According to patent publication US3984543A, “Therapeutic methods employing cyclic aminophosphonic acids” (Henkel & Cie G.m.b.H., priority 1973, dated 1976):

Columns and labels:
[1] = Apatite crystallization delay test in vitro; assay type: physicochemical; details: 2 mg, pH 7.4, 35°C
Experimental: Supersaturated solutions of Ca^+^+ and HPO4 ^-^- ions are relatively stable, but crystallize after the addition of an apatite nuclei according to the reaction
with the release of protons. The reaction can, therefore, be readily observed by titration with a base at a constant pH.
400 ml of 0.0008 molar KH2 PO4 solution were mixed with 45 ml of a 0.012 molar CaCl2 solution, and the clear solution was standardized with KOH to a pH of 7.4, after being brought to a temperature of 35°C. […] The crystallization set in immediately and was followed by "pH-Stat" titration with 0.05 N KOH.
If a small amount (2 mg) of one of the cyclic aminophosphonic acids of the invention was added to the solution before the apatite was added, the crystallization was greatly delayed.
For simplicity's sake, only the value for n and the various substituents for R according to Formula I in Example 8 are indicated in the left column of the Table.

[2] = Sequestration of calcium (modified Hampshire test); assay type: physicochemical; details: pH 11; for Consumption of Sequestering Agent Solution: 1 gm sequestering agent in 50 ml H2O, until CaCO3 precipitate redissolved
Experimental: In the investigation of the sequestration of calcium, a modified Hampshire test was employed and worked as follows:
1 gm of the sequestering agent was dissolved in 50 ml of H2 O, adjusted with NaOH to a pH of 11. 50 ml of a Ca^+^+ solution (1470 mg of CaCl2.2H2 0/1) were mixed with 100 ml of a sodium carbonate solution (7.15 gm NaCO3.10H2 O/l.). Then the solution of the sequestering agent was added in drops from a burette until the calcium carbonate precipitate was redissolved. The values formed have been reported in Table I. For the sake of simplicity, only the value for n and the various substituents for R according to Formula I are indicated in the left column of the Table.

[3] = Inhibition of precipitation of NH4 MgPO4 in vitro; assay type: physicochemical; details: pH 7.4, 72 hours
Experimental: Since the precipitation of NH4 MgPO4 is occasionally the cause of the formation of urinary calculus, the inhibition of the precipitation of NH4 MgPO4 was also tested in aqueous solutions at pH 7.4. The test was carried out as follows.
A fixed amount of the phosphonic acid was weighed into a beaker and dissolved with 25 ml of a phosphate solution (13.799 gm of NaH2 PO4.H2 O/liter) as well as with 40 ml of distilled water, and standardized with NaOH to a pH of 7.4. After adding 25 ml of a Mg^+^+ and NH4 ^+ solution (20.333 gm of MgC12.6H2 O and 5.349 gm of NH4 Cl/liter, standardized to a pH of 7.4), the solution was brought up with distilled H2 O to 100 ml. Then the sample was covered and evaluated after 72 hours for amount and appearance of the precipitate. The explanation of the data in the left column is to be found in Example 8.

[4] = Calcium phosphate dissolution in vitro (CaHPO4 test); assay type: physicochemical; details: for Consumption Sequestering Agent Solution: 10 mg/ml solution, pH 7.4, clear solution after 1 hour; for mg CaHPO4 dissolved / gm Sequestering Agent: pH 7.4, 1 hour
Experimental: Essential tests for the effectiveness of the compounds in physiological systems are in vitro tests for the dissolving of freshly precipitated CaHPO4, as well as preventing the precipitation of NH4 MgPO4 at a pH of 7.4. The "CaHPO4 test" was carried out as follows.
By combining 25 ml of a phosphate solution (1.38 gm of NaH2 PO4.H2 O/liter, standardized to a pH of 7.4) and 25 ml of a calcium solution (1.45 gm of CaCl2.2H2 O/liter, standardized to a pH of 7.4), a precipitate of CaHPO4 was produced. Thereafter, so much of a solution of the sequestering agent (at a concentration of 10 mg/ml) was added from a burette that a clear solution was obtained after standing for 1 hour.

[5] = Acute toxicity (LD50) in mice; details: mouse, in vivo
From the text: The new phosphonic acids are characterized by a very low acute toxicity. The following LD50 values of Table IV were found in mice. For the explanation of the data in the left column of Table IV, see Example 8.

[6] = Threshold effect: prevention of precipitation of poorly soluble calcium compounds by substoichiometric amounts; assay type: physicochemical; details: 30 minutes
Experimental: The prevention of the precipitation of poorly soluble calcium compounds by substoichiometric amounts of a sequestering agent was determined at 60° and 95° C as follows:
25 ml of 80° dH (German hardness) water (corresponding to 800 mg CaO/l.) were mixed with a 10 ml of a solution of the sequestering agent (concentration: 300 mg/l.). After dilution with distilled water to 70 ml, 25 ml of a sodium carbonate solution containing 4 gm/l. were added and the solution was brought to 100 ml. After heating for 30 minutes at the indicated temperature, any precipitate formed was separated. The sequestering agent was removed from a measured amount of the clear filtrate by means of an anion exchange resin. Then the content of the dissolved calcium in this sample was determined by complexometry (according to Scharzenbach).

Structure (SMILES)	Delay of crystallization in % after 4 Hours [1]	Delay of crystallization in % after 8 Hours [1]	Consumption of Sequestering Agent Solution [2]	mg CaCO3 Sequestered per gm of Compound [2]	Consumption Sequestering Agent Solution [4]	mg CaHPO4 dissolved / gm Sequestering Agent [4]	LD50 [5]	CaO in Solution ([6]; 60 °C)	CaO precipitated ([6]; 60 °C)	CaO in Solution ([6]; 95 °C)	CaO precipitated ([6]; 95 °C)	further results
CNC1(P(=O)(O)O)CCC(=O)N(C)P1(=O)O (stereo not shown) [n=2, R=CH3, 1-Methyl-2-hydroxy-2-oxo-3-methylamino-3-phosphonyl-6-oxo-1-aza-2-phospha-cyclohexane]	84%	76%	3.0 mL	840 mg CaCO3 per gm of Compound	4.0 mL	850 mg CaHPO4 / gm Sequestering Ag						Precipitation after 72 hours: NH4 MgPO4 crystals ([3]; 145 mg): Very few NH4 MgPO4 crystals; Precipitation after 72 hours: cloudiness ([3]; 145 mg): no cloudiness; Precipitation after 72 hours: NH4 MgPO4 crystals ([3]; 217.5 mg): No NH4 MgPO4 crystals; Precipitation after 72 hours: cloudiness ([3]; 217.5 mg): no
NC1(P(=O)(O)O)CCC(=O)NP1(=O)O (stereo not shown) [n=2, R=H, 2-Hydroxy-2-oxo-3-amino-3-phosphonyl-6-oxo-1-aza-2-phospha-cyclohexane]			2.6 mL	1040 mg CaCO3 per gm of Compound	6.0 mL	570 mg CaHPO4 / gm Sequestering Ag	3200 mg/kg	99.6%	0.4%	99.5%	0.5%	Precipitation after 72 hours: NH4 MgPO4 crystals ([3]; 61 mg): Few NH4 MgPO4 crystals; Precipitation after 72 hours: cloudiness ([3]; 61 mg): some; Precipitation after 72 hours: NH4 MgPO4 crystals ([3]; 122 mg): No NH4 MgPO4 crystals; Precipitation after 72 hours: cloudiness ([3]; 122 mg): great
CNC1(P(=O)(O)O)CCCC(=O)N(C)P1(=O)O (stereo not shown) [n=3, R=CH3, 1-Methyl-2-hydroxy-2-oxo-3-methylamino-3-phosphonyl-7-oxo-1-aza-2-phospha-cycloheptane]			3.8 mL	660 mg CaCO3 per gm of Compound	5.0 mL	680 mg CaHPO4 / gm Sequestering Ag						Precipitation after 72 hours: NH4 MgPO4 crystals ([3]; 72 mg): Few NH4 MgPO4 crystals; Precipitation after 72 hours: NH4 MgPO4 crystals ([3]; 144 mg): No NH4 MgPO4 crystals
NC1(P(=O)(O)O)CC(=O)NP1(=O)O (stereo not shown) [n=1, R=H, 2-Hydroxy-2-oxo-3-amino-3-phosphonyl-5-oxo-1-aza-2-phospha-cyclopentane]			2.6 mL	1040 mg CaCO3 per gm of Compound	8.0 mL	420 mg CaHPO4 / gm Sequestering Ag		76.1%	23.9%	87.7%	12.3%	
CCNC1(P(=O)(O)O)CCC(=O)N(CC)P1(=O)O (stereo not shown) [n=2, R=C2 H5, 1-Ethyl-2-hydroxy-2-oxo-3-ethylamino-3-phosphonyl-6-oxo-1-aza-2-phospha-cyclohexane]			2.25 mL	1110 mg CaCO3 per gm of Compound								
NC1(P(=O)(O)O)CCCC(=O)NP1(=O)O (stereo not shown) [n=3, R=H, 2-Hydroxy-2-oxo-3-amino-3-phosphonyl-7-oxo-1-aza-2-phospha-cycloheptane]	96%	96%	3.1 mL	810 mg CaCO3 per gm of Compound	2.5 mL	1350 mg CaHPO4 / gm Sequestering Ag	10000 mg/kg	99.6%	0.4%	99.5%	0.5%	Precipitation after 72 hours: NH4 MgPO4 crystals ([3]; 68.5 mg): Fewer NH4 MgPO4 crystals; Precipitation after 72 hours: cloudiness ([3]; 68.5 mg): great cloudiness
